Measured values from patent US9695155B2, “Herbicidal substituted pyrimidinyloxy benzene compounds” (E. I. DU PONT DE NEMOURS AND COMPANY, priority 2013, dated 2017).

Tests used:
pigweed [1] = assay: Test A preemergence; assay type: in vivo, Amaranthus retroflexus
Summary of the method: (§1)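 Injury scores run from 0, no effect, to 100, complete control, judged by eye against untreated plants roughly 10 days after treatment. Chemicals carried a surfactant in a non-phytotoxic solvent and went onto loam–sand soil preemergence or onto one- to two-leaf seedlings postemergence.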

giant foxtail = assay: Test A postemergence; assay type: in vivo, Setaria faberii
Summary of the method: as §1

corn = assay: Test A postemergence; assay type: in vivo, Zea mays
Summary of the method: as §1

lambsquarters [2] = assay: Test C preemergence; assay type: in vivo, Chenopodium album; settings: preemergence
Summary of the method: (§2)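 Whole-plant greenhouse test with surfactant-containing solvent formulation, applied preemergence to sown loam–sand pots or postemergence to 2–18 cm plants. Scored by eye 13 to 15 days on, 0–100 scale.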

yellow nutsedge = assay: Test C preemergence; assay type: in vivo, Cyperus esculentus; settings: preemergence
Summary of the method: as §2

pigweed [3] = assay: Test C preemergence; assay type: in vivo, Amaranthus retroflexus; settings: preemergence
Summary of the method: as §2

ragweed = assay: Test C preemergence; assay type: in vivo, Ambrosia elatior; settings: preemergence
Summary of the method: as §2

waterhemp = assay: Test C preemergence; assay type: in vivo, Amaranthus rudis; settings: preemergence
Summary of the method: as §2

galium = assay: Test C postemergence; assay type: in vivo, Galium aparine; settings: for Plant response rating (0 to 100), Galium: 16 g ai/ha, 0 is no effect, 100 is complete control; for Galium plant response rating: 31 g ai/ha, 13 to 15 days; for Galium plant response rating / Plant response rating, Galium: scale 0 to 100 (0 no effect, 100 complete control)
Summary of the method: as §2

lambsquarters [4] = assay: Test C postemergence; assay type: in vivo, Chenopodium album; settings: for Plant response rating (0 to 100), Lambsquarters: 16 g ai/ha, 0 is no effect, 100 is complete control; for Lambsquarters plant response rating: 31 g ai/ha, 13 to 15 days; for Lambsquarters plant response rating / Plant response rating, Lambsquarters: scale 0 to 100 (0 no effect, 100 complete control)
Summary of the method: as §2

morningglory = assay: Test C postemergence; assay type: in vivo, Ipomoea coccinea; settings: for Plant response rating (0 to 100), Morningglory: 16 g ai/ha, 0 is no effect, 100 is complete control; for Morningglory plant response rating: 31 g ai/ha, 13 to 15 days; for Morningglory plant response rating / Plant response rating, Morningglory: scale 0 to 100 (0 no effect, 100 complete control)
Summary of the method: as §2

kochia = assay: Test C postemergence; assay type: in vivo, Kochia scoparia; settings: for Plant response rating (0 to 100), Kochia: 16 g ai/ha, 0 is no effect, 100 is complete control; for Kochia plant response rating: 31 g ai/ha, 13 to 15 days; for Kochia plant response rating / Plant response rating, Kochia: scale 0 to 100 (0 no effect, 100 complete control)
Summary of the method: as §2

[5] = 125 g ai/ha, 0 to 100 scale where 0 is no effect and 100 is complete control
[6] = 500 g ai/ha, 0 to 100 scale where 0 is no effect and 100 is complete control
[7] = 16 g ai/ha, scale 0 to 100 (0 no effect, 100 complete control)
[8] = 62 g ai/ha, scale 0 (no effect) to 100 (complete control)
[9] = 125 g ai/ha, scale 0 (no effect) to 100 (complete control)
[10] = 125 g ai/ha, postemergence, visual rating
[11] = 1000 g ai/ha, 0 to 100 scale, 0 no effect, 100 complete control

Row | SMILES | Lambsquarters plant response rating (lambsquarters [2]; [7]) | Lambsquarters plant response rating (lambsquarters [2]; [8]) | Lambsquarters plant response rating (lambsquarters [2]; [9]) | Nutsedge, Yellow plant response rating (yellow nutsedge; [7]) | Nutsedge, Yellow plant response rating (yellow nutsedge; [8]) | Nutsedge, Yellow plant response rating (yellow nutsedge; [9]) | Pigweed plant response rating (pigweed [3]; [7]) | Pigweed plant response rating (pigweed [3]; [8]) | Pigweed plant response rating (pigweed [3]; [9]) | Ragweed plant response rating (ragweed; [7]) | Ragweed plant response rating (ragweed; [8]) | Ragweed plant response rating (ragweed; [9]) | Waterhemp plant response rating (waterhemp; [7]) | Waterhemp plant response rating (waterhemp; [8]) | Waterhemp plant response rating (waterhemp; [9]) | Plant response rating (0 to 100), Galium (galium; postemergence) | Galium plant response rating (galium; postemergence, visual rating) | Plant response rating, Galium (galium; [10]) | Plant response rating, Galium (galium; Postemergence, 62 g ai/ha) | Plant response rating (0 to 100), Lambsquarters (lambsquarters [4]; postemergence) | also measured
1 | CCCOc1cnn(-c2c(C#N)cccc2Oc2ncc(Cl)cn2)c1 [Compound 150] | 10 | 80 | 100 | 0 | 25 | 40 | 55 | 100 | 100 | 0 | 25 | 55 | 20 | 98 | 98 | 60 | 65 | 80 | 75 | 10 | Plant response rating, Pigweed (pigweed [1]; [5]): 100; Pigweed plant response rating (pigweed [1]; [6]): 100; Foxtail, Giant plant response rating (giant foxtail; [5]): 100; Plant response rating, Foxtail, Giant (giant foxtail; [6]): 100; Corn plant response rating (corn; [5]): 50; Plant response rating, Corn (corn; [6]): 90; Lambsquarters plant response rating (lambsquarters [4]; postemergence, visual rating): 30; Plant response rating, Lambsquarters (lambsquarters [4]; [10]): 80; Plant response rating, Lambsquarters (lambsquarters [4]; Postemergence, 62 g ai/ha): 35; Plant response rating (0 to 100), Morningglory (morningglory; postemergence): 40; Morningglory plant response rating (morningglory; postemergence, visual rating): 60; Plant response rating, Morningglory (morningglory; [10]): 80; Plant response rating, Morningglory (morningglory; Postemergence, 62 g ai/ha): 65; Plant response rating (0 to 100), Kochia (kochia; postemergence): 50; Kochia plant response rating (kochia; postemergence, visual rating): 55; Plant response rating, Kochia (kochia; [10]): 85; Plant response rating, Kochia (kochia; Postemergence, 62 g ai/ha): 55
2 | FCc1cn(-c2c(F)cccc2Oc2ncc(Cl)cn2)nn1 [Compound 154] | 70 | 90 | 100 | 0 | 5 | 65 | 85 | 100 | 100 | 75 | 95 | 90 | 100 | 100 | 100 | 60 | 65 | 85 | 80 | 20 | Pigweed plant response rating (pigweed [1]; 1000 g ai/ha, 0 to 100 scale, 0 no effect, 100 complete control, approx. 10 days): 100; Plant response rating, Foxtail, Giant (giant foxtail; [11]): 100; Plant response rating, Corn (corn; [11]): 90; Lambsquarters plant response rating (lambsquarters [4]; postemergence, visual rating): 55; Plant response rating, Lambsquarters (lambsquarters [4]; [10]): 70; Plant response rating, Lambsquarters (lambsquarters [4]; Postemergence, 62 g ai/ha): 60; Plant response rating (0 to 100), Morningglory (morningglory; postemergence): 55; Morningglory plant response rating (morningglory; postemergence, visual rating): 65; Plant response rating, Morningglory (morningglory; [10]): 80; Plant response rating, Morningglory (morningglory; Postemergence, 62 g ai/ha): 65; Plant response rating (0 to 100), Kochia (kochia; postemergence): 50; Kochia plant response rating (kochia; postemergence, visual rating): 50; Plant response rating, Kochia (kochia; [10]): 80; Plant response rating, Kochia (kochia; Postemergence, 62 g ai/ha): 80
